Test results taken from publication PMC8744835, “Sterically Hindered Quaternary Phosphonium Salts (QPSs): Antimicrobial Activity and Hemolytic and Cytotoxic Properties” (International Journal of Molecular Sciences, 2021).
≈ marks a conversion by molar mass, not a printed value.

Key:
[1] = tested on: Bacillus cereus ATCC 10702 NCTC 8035; test: Antimicrobial activity, serial dilution technique in Mueller–Hinton Broth 2; assay type: cell-based; details: average of three ± SD, - means non-active; for MIC / MBC: Bacillus cereus, Bc; for MIC: read-out: Minimum Inhibitory Concentration (MIC), Bc; for MBC: read-out: Minimum Bactericidal and Fungicidal Concentration (MBC, MFC), Bc
Experimental: (§1) The synthesized compounds were tested for antimicrobial activity against a number of Gram-positive bacteria, Staphylococcus aureus (Sa), Bacillus cereus (Bc) and Enterococcus faecalis (Ef), and Gram-negative bacteria, Escherichia coli (Ec) and Pseudomonas aeruginosa (Pa), including the methicillin-resistant strains S. aureus MRSA-1 (resistant to fluoroquinolones and beta-lactams) and MRSA-2 (resistant to beta-lactams). The methicillin-resistant strains S. aureus were transferred by the Republican Clinical Hospital of the Republic of Tatarstan (Kazan). The fungicidal activity against Candida albicans (Ca) and Trichophyton mentagrophytes var. gypseum (Tm) was studied. These pathogens were chosen because they are the most widespread in the food industry and the healthcare system.
(§2) The antimicrobial activity of the QPSs was determined using the serial dilution technique in Mueller–Hinton Broth 2. The cultures used for testing included the Gram-positive bacteria Staphylococcus aureus ATCC 6538P FDA 209P, Enterococcus faecalis ATCC 2921 and Bacillus cereus ATCC 10702 NCTC 8035, the Gram-negative bacteria Escherichia coli ATCC 25922 and Pseudomonas aeruginosa ATCC 9027, and the fungi Trichophyton mentagrophytes var. gypseum 1773 and Candida albicans ATCC 10231; methicillin-resistant strains of S. aureus MRSA were obtained from hospital patients with chronic tonsillitis (MRSA-1) and sinusitis (MRSA-2) in the Republican Clinical Hospital (Kazan, Russia). […] The bacterial load was 3.0 × 10^5 cfu/mL. The results were recorded every 24 h for 5 days. The cultures were incubated at 37 °C. The experiment was repeated three times. […] The minimum inhibitory concentration (MIC) was defined as the minimum concentration of a compound that inhibits the growth of the corresponding test micro-organism. The growth of bacteria as well as the absence of growth due to the bacteriostatic action of a compound was recorded.

[2] = tested on: Enterococcus faecalis ATCC 2921; test: as above; assay type: cell-based; details: average of three ± SD, - means non-active; for MIC / MBC: Enterococcus faecalis, ATCC2921, Ef; for MIC: read-out: Minimum Inhibitory Concentration (MIC), Ef; for MBC: read-out: Minimum Bactericidal and Fungicidal Concentration (MBC, MFC), Ef
Experimental: as §1, §2

[3] = tested on: Pseudomonas aeruginosa ATCC 9027; test: as above; assay type: cell-based; details: average of three ± SD, - means non-active
Experimental: as §1, §2

[4] = tested on: Staphylococcus aureus ATCC 6538P FDA 209P; test: as above; assay type: cell-based; details: average of three ± SD, - means non-active; for MIC: read-out: Minimum Inhibitory Concentration (MIC), Sa
Experimental: as §1, §2

[5] = tested on: methicillin-resistant S. aureus MRSA-1; test: as above; assay type: cell-based, Staphylococcus aureus; details: - means non-active; for MIC / Minimum Inhibitory Concentration (MIC), MRSA-1: MRSA-1 (resistant to fluoroquinolones and beta-lactams); for MIC: read-out: Minimum Inhibitory Concentration (MIC), MRSA-1
Experimental: as §1, §2

[6] = tested on: methicillin-resistant S. aureus MRSA-2; test: as above; assay type: cell-based, Staphylococcus aureus; details: - means non-active; for MIC / Minimum Inhibitory Concentration (MIC), MRSA-2: MRSA-2 (resistant to beta-lactams); for MIC: read-out: Minimum Inhibitory Concentration (MIC), MRSA-2
Experimental: as §1, §2

[7] = tested on: Escherichia coli ATCC 25922; test: as above; assay type: cell-based; details: average of three ± SD, - means non-active
Experimental: as §1, §2

[8] = tested on: Candida albicans ATCC 10231; test: Fungicidal activity, serial dilution technique; assay type: cell-based; details: average of three ± SD, - means non-active; for MBC / MIC / MFC: Candida albicans, ATCC10231, Ca; for MBC / MFC: read-out: Minimum Bactericidal and Fungicidal Concentration (MBC, MFC), Ca; for MIC: read-out: Minimum Inhibitory Concentration (MIC), Ca
Experimental: as §1
(§3) The antimicrobial activity of the QPSs was determined using the serial dilution technique in Mueller–Hinton Broth 2. The cultures used for testing included the Gram-positive bacteria Staphylococcus aureus ATCC 6538P FDA 209P, Enterococcus faecalis ATCC 2921 and Bacillus cereus ATCC 10702 NCTC 8035, the Gram-negative bacteria Escherichia coli ATCC 25922 and Pseudomonas aeruginosa ATCC 9027, and the fungi Trichophyton mentagrophytes var. gypseum 1773 and Candida albicans ATCC 10231; methicillin-resistant strains of S. aureus MRSA were obtained from hospital patients with chronic tonsillitis (MRSA-1) and sinusitis (MRSA-2) in the Republican Clinical Hospital (Kazan, Russia). Ciprofloxacin and ketoconazole were purchased from Sigma-Aldrich. The bacterial load was 3.0 × 10^5 cfu/mL. The results were recorded every 24 h for 5 days. The cultures were incubated at 37 °C. The experiment was repeated three times. […] The minimum inhibitory concentration (MIC) was defined as the minimum concentration of a compound that inhibits the growth of the corresponding test micro-organism. The growth of bacteria as well as the absence of growth due to the bacteriostatic action of a compound was recorded.

[9] = tested on: Trichophyton mentagrophytes var. gypseum 1773; test: Fungicidal activity, serial dilution technique; assay type: cell-based; details: for Minimum Bactericidal and Fungicidal Concentration (MBC, MFC), Tm / Minimum Inhibitory Concentration (MIC), Tm: average of three ± SD, - means non-active
Experimental: as §1, §3

[10] = tested on: Escherichia coli ATCC 25922; test: Antimicrobial activity, serial dilution technique in Mueller–Hinton Broth 2; assay type: cell-based; details: average of three ± SD, - means non-active; for MBC: Escherichia coli, ATCC25922, Ec, read-out: Minimum Bactericidal and Fungicidal Concentration (MBC, MFC), Ec
[11] = Trichophyton mentagrophytes, read-out: Minimum Bactericidal and Fungicidal Concentration (MBC, MFC), Tm

Row | SMILES | MIC [1] [µg/mL] | MIC [2] [µg/mL] | MIC ([4]; Staphylococcus aureus, Sa) [µg/mL] | MIC ([6]; Staphylococcus aureus, MRSA) [µg/mL] | Minimum Inhibitory Concentration (MIC), MRSA-1 [5] [µg/mL] | Minimum Inhibitory Concentration (MIC), Bc [1] [µg/mL] | Minimum Inhibitory Concentration (MIC), Ef [2] [µg/mL] | Minimum Inhibitory Concentration (MIC), Ec [7] [µg/mL] | Minimum Inhibitory Concentration (MIC), Sa [4] [µg/mL] | Minimum Inhibitory Concentration (MIC), MRSA-2 [6] [µg/mL] | Minimum Inhibitory Concentration (MIC), Pa [3] [µg/mL] | Minimum Bactericidal and Fungicidal Concentration (MBC, MFC), Sa [4] [µg/mL] | Minimum Bactericidal and Fungicidal Concentration (MBC, MFC), MRSA-1 ([5]; MRSA-1) [µg/mL] | Minimum Bactericidal and Fungicidal Concentration (MBC, MFC), MRSA-2 ([6]; MRSA-2) [µg/mL] | MBC [8] [µg/mL] | Minimum Bactericidal and Fungicidal Concentration (MBC, MFC), Tm [9] [µg/mL] | Minimum Inhibitory Concentration (MIC), Tm [9] [µg/mL] | Minimum Bactericidal and Fungicidal Concentration (MBC, MFC), Bc [1] [µg/mL] | Minimum Bactericidal and Fungicidal Concentration (MBC, MFC), Ef [2] [µg/mL] | Minimum Inhibitory Concentration (MIC), Ca [8] [µg/mL] | also measured
1 | O=C(O)c1cn(C2CC2)c2cc(N3CCNCC3)c(F)cc2c1=O [Ciprofloxacin, reference compound] | 0.5 ± 0.04 (≈ 1.51 µM) | 3.9 ± 0.3 (≈ 11.8 µM) | 0.5 ± 0.03 (≈ 1.51 µM) | 0.9 ± 0.07 (≈ 2.72 µM) |  |  |  |  |  |  |  |  |  |  |  |  |  |  |  |  | MIC ([3]; Pseudomonas aeruginosa, ATCC9027, Pa, read-out: Minimum Inhibitory Concentration (MIC), Pa): 0.5 ± 0.03 µg/mL (≈ 1.51 µM); MIC ([5]; Staphylococcus aureus, MRSA): 125 ± 11 µg/mL (≈ 377 µM)
2 | CCCCCCCCCCCC[P+](C(C)(C)C)(C(C)(C)C)C(C)(C)C [Compound 12b] |  |  |  |  | 1.9 ± 0.1 | 1.9 ± 0.01 | 1.9 ± 0.02 | 15.6 ± 1.3 | 0.5 ± 0.03 | 0.5 ± 0.04 | 125 ± 11 |  |  | 31.3 ± 2.7 |  | 62.5 ± 5.2 | 31.3 ± 2.4 | 62.5 ± 5.5 | 15.6 ± 1.3 | 15.6 ± 1.3 | Minimum Bactericidal and Fungicidal Concentration (MBC, MFC), Pa [3]: 125 ± 10 µg/mL; Minimum Bactericidal and Fungicidal Concentration (MBC, MFC), Ca [8]: 15.6 ± 1.3 µg/mL; Minimum Bactericidal and Fungicidal Concentration (MBC, MFC), Ec [10]: 15.6 ± 1.2 µg/mL
3 | CC(=O)N1CCN(c2ccc(OCC3COC(Cn4ccnc4)(c4ccc(Cl)cc4Cl)O3)cc2)CC1 (centres unmarked) [Ketoconazole, reference compound] |  |  |  |  |  |  |  |  |  |  |  |  |  |  | 3.9 ± 0.3 (≈ 7.34 µM) |  | 3.9 ± 0.2 |  |  | 3.9 ± 0.3 | MFC [8]: 3.9 ± 0.3 µg/mL (≈ 7.34 µM); MIC [8]: 3.9 ± 0.3 µg/mL (≈ 7.34 µM); MBC [9, 11]: 3.9 ± 0.2 µg/mL (≈ 7.34 µM); MFC [9, 11]: 3.9 ± 0.2 µg/mL (≈ 7.34 µM); MIC ([9]; Trichophyton mentagrophytes, read-out: Minimum Inhibitory Concentration (MIC), Tm): 3.9 ± 0.2 µg/mL (≈ 7.34 µM)

Continued, in another order:

Row | MIC [1] [µg/mL] | MIC [2] [µg/mL] | MIC ([4]; Staphylococcus aureus, Sa) [µg/mL] | MIC ([6]; Staphylococcus aureus, MRSA) [µg/mL] | Minimum Inhibitory Concentration (MIC), MRSA-1 [5] [µg/mL] | Minimum Inhibitory Concentration (MIC), Bc [1] [µg/mL] | Minimum Inhibitory Concentration (MIC), Ef [2] [µg/mL] | Minimum Inhibitory Concentration (MIC), Ec [7] [µg/mL] | Minimum Inhibitory Concentration (MIC), Sa [4] [µg/mL] | Minimum Inhibitory Concentration (MIC), MRSA-2 [6] [µg/mL] | Minimum Inhibitory Concentration (MIC), Pa [3] [µg/mL] | SMILES | Minimum Bactericidal and Fungicidal Concentration (MBC, MFC), Sa [4] [µg/mL] | Minimum Bactericidal and Fungicidal Concentration (MBC, MFC), MRSA-1 ([5]; MRSA-1) [µg/mL] | Minimum Bactericidal and Fungicidal Concentration (MBC, MFC), MRSA-2 ([6]; MRSA-2) [µg/mL] | MBC [8] [µg/mL] | Minimum Bactericidal and Fungicidal Concentration (MBC, MFC), Tm [9] [µg/mL] | Minimum Inhibitory Concentration (MIC), Tm [9] [µg/mL] | Minimum Bactericidal and Fungicidal Concentration (MBC, MFC), Bc [1] [µg/mL] | Minimum Bactericidal and Fungicidal Concentration (MBC, MFC), Ef [2] [µg/mL] | Minimum Inhibitory Concentration (MIC), Ca [8] [µg/mL] | also measured
4 | 1.9 ± 0.1 | 7.8 ± 0.5 | 0.9 ± 0.07 | 0.9 ± 0.08 | 1.9 ± 0.1 |  |  |  |  |  |  | CCCCCCCCCCC[P+](C(C)(C)C)(C(C)(C)C)C(C)(C)C [Compound 11a] | 1.9 ± 0.1 | 1.9 ± 0.1 | 7.8 ± 0.6 | 62.5 ± 5.7 | 31.3 ± 2.5 | 31.3 ± 2.5 |  |  |  | MBC [1]: 125 ± 10 µg/mL; MBC [2]: 7.8 ± 0.6 µg/mL; MIC ([7]; Escherichia coli, ATCC25922, Ec, read-out: Minimum Inhibitory Concentration (MIC), Ec): 31.3 ± 2.6 µg/mL; MIC [8]: 62.5 ± 5.5 µg/mL; MBC [10]: 31.3 ± 2.3 µg/mL
5 |  |  |  |  | 0.3 ± 0.02 | 1.9 ± 0.1 | 7.8 ± 0.6 | 62.5 ± 5.3 | 0.9 ± 0.07 | 0.5 ± 0.04 |  | CCCCCCCCCCC[P+](C(C)(C)C)(C(C)(C)C)C(C)(C)C [Compound 11b] | 3.9 ± 0.2 | 0.5 ± 0.03 | 0.9 ± 0.07 |  | 125 ± 9 | 125 ± 9 | 125 ± 10 | 15.6 ± 1.2 | 31.3 ± 2.4 | Minimum Bactericidal and Fungicidal Concentration (MBC, MFC), Ca [8]: 31.3 ± 2.1 µg/mL; Minimum Bactericidal and Fungicidal Concentration (MBC, MFC), Ec [10]: 62.5 ± 5.4 µg/mL
6 | 1.9 ± 0.1 | 0.5 ± 0.03 | 0.5 ± 0.04 | 0.5 ± 0.03 |  |  |  | 0.9 ± 0.07 |  |  | 31.3 ± 2.7 | CCCCCCCCCCCCCCCC[P+](C(C)(C)C)(C(C)(C)C)C(C)(C)C [Compound 16a] |  |  |  | 3.9 ± 0.3 |  |  |  |  | 1.9 ± 0.1 | MBC [1]: 31.3 ± 2.2 µg/mL; MBC [2]: 0.5 ± 0.03 µg/mL; MBC ([3]; Pseudomonas aeruginosa, ATCC9027, Pa, read-out: Minimum Bactericidal and Fungicidal Concentration (MBC, MFC), Pa): 125 ± 9 µg/mL; MBC ([4]; Staphylococcus aureus, Sa, read-out: Minimum Bactericidal and Fungicidal Concentration (MBC, MFC), Sa): 0.5 ± 0.03 µg/mL; MIC ([5]; Staphylococcus aureus, MRSA): 1.9 ± 0.1 µg/mL; MBC ([5]; Staphylococcus aureus, MRSA, MRSA-1, read-out: Minimum Bactericidal and Fungicidal Concentration (MBC, MFC), MRSA-1): 7.8 ± 0.6 µg/mL; MBC ([6]; Staphylococcus aureus, MRSA, MRSA-2, read-out: Minimum Bactericidal and Fungicidal Concentration (MBC, MFC), MRSA-2): 7.8 ± 0.7 µg/mL; MBC [10]: 1.9 ± 0.1 µg/mL
7 |  |  |  |  | 1.9 ± 0.1 | 1.9 ± 0.1 | 0.5 ± 0.03 | 15.6 ± 1.2 | 0.5 ± 0.04 | 1.9 ± 0.1 | 7.8 ± 0.6 | CCCCCCCCCCCCCCCCC[P+](C(C)(C)C)(C(C)(C)C)C(C)(C)C [Compound 17b] | 0.5 ± 0.04 | 1.9 ± 0.1 | 1.9 ± 0.1 |  | 125 ± 11 | 125 ± 10 | 15.6 ± 1.3 | 3.9 ± 0.2 | 1.9 ± 0.1 | Minimum Bactericidal and Fungicidal Concentration (MBC, MFC), Pa [3]: 15.6 ± 1.3 µg/mL; MFC [8]: 7.8 ± 0.7 µg/mL
